The values below come from US8093299B2, “Methods of treating bowel disorders” (Amgen Inc., priority 2007, dated 2012).

Where “and” joins values, the source holds several entries; their conditions need not be identical. Equal values may be shown once. Read-outs that look alike come from different tables or passages of the source.

In test [1] the test system is 5% DSS induced colitis in SJL/J mice. Briefly: DSS-induced colitis in mice, histopathologic inflammation score of large intestine. Conditions: 5% DSS 9 days, SJL/J mice; oral; Compound B 10 mg/kg, FK 506 1 mg/kg. The format is in vivo, mouse. An excerpt:
Animals. Female SJL/J mice aged 8-10 weeks were used for this study, purchased from Jackson Laboratories (Bar Harbour, Me.). Female Spraque-Dawley rats (approximately 150-300 grams) were purchased from Charles River Laboratories Inc. (Wilmington, Mass.). Mdr1a−/− mice (FVB.129P2-Abcb1a^tm1BorN7), weight 20-21 g, 8 weeks at initiation of experiments, were housed and maintained (5 per cage) in the animal facility at Amgen Washington. All animals were cared for according to the standard protocols of the Amgen Institutional Animal Care and Use Committee.
Chemical reagents. Dextran sodium sulfate (DSS) with molecular mass 36-50 kDa was purchased from ICN Chemicals, Aurora, Ohio. The DSS solution was prepared as a 5% w/v solution in sterile water (Baxter Healthcare Corporation) and sterile filtered through a 0.45 μm filter before being added to drinking water. Water for the negative control groups was similarly filtered. FK506, (also known as Tacrolimus, active ingredient in Prograf®), chemical name [3S-[3R*[E(1S*,3S*,4S*)],4S*,5R*,8S*,9E,12R*,14R*,15S*,16R*,18S*,19S*,26aR*]]-5,6,8,11,12,13,14,15,16,17,18,19,24,25,26,26a-hexadecahydro-5,19-dihydroxy-3-[2-(4-hydroxy-3-methoxycyclohexyl)-1-methylethenyl]-14,16-dimethoxy-4,10,12,18-tetramethyl-8-(2-propenyl)-15,19-epoxy-3H-pyrodi[2,1-c][1,4]oxaazacyclotricosine-1,7,20,21(4H, 23H)-tetrone monohydrate, was used as a positive control for the inflammation treatment. Tacrolimus is a macrolide immunosuppressant produced by Streptomyces tsukubaensis. The solution of FK506 (Prograf®, Astellas) was prepared as follows: 0.1 mg/ml solution in phosphate buffered saline (PBS) was prepared by diluting 5 mg/ml stock solution. The animals were dosed with FK506 at 1 mg/kg in 200 μl of PBS.
Calcimimetic solutions (Compound A, 3-(2-chlorophenyl)-N-((1R)-1-(3-(methyloxy)phenyl)ethyl)-1-propanamine, Compound B, (1R)-N-((6-(methyloxy)-4′-(trifluoromethyl)-3-biphenylyl)methyl)-1-phenylethanamine, Compound C, N-(2-chloro-5-((((1R)-1-phenylethyl)amino)methyl)phenyl)-5-methyl-3-isoxazolecarboxamide, and Compound D, N-(2-chloro-5-((((1R)-1-phenylethyl)amino)methyl)phenyl)-2-pyridinecarboxamide) were formulated and dosed in free base equivalents at volumes determined by the pharmacologist. Formulation vehicle was 20% (w/v) Captisol (β-Cyclodextrin Sulfobutyl Ether Sodium Salt, Research Grade from CyDex, Inc.) in water with a final pH of 2.0-2.2 at room temperature, adjusted with HCl and NaOH as required. Final concentrations of DMSO never exceeded 0.1% (v/v).
DSS colitis in mice. All experiments were performed on groups of 8 to 10 SJL-J mice, housed in the same cage. For disease induction, mice were given a 5% DSS ad libitum as drinking water for 9 days.
Postmortem evaluation. Mice and rats were euthanized by CO2 asphyxiation. The large intestine were removed from the carcass, evaluated for gross lesions and three individual non-adjacent segments of proximal, middle and distal large intestine 2 centimeters long were immersed in the Zinc Formalin fix for 24 hours. At the end of 24 hours the sections were washed with tap water and put into 70% ethanol. Each section was then cut into three 3 mm pieces (9 pieces per animal), processed into paraffin blocks, and sections were cut in 5 μm sections and stained with hematoxylin and eosin.
Histopathologic changes of the proximal, middle, and distal small and large intestine was scored as a global assessment of inflammation based on inflammatory infiltrate, edema, mucosal erosions or ulcerations as described in Table 6.
For disease induction, treated mice were given 5% DSS in water ad libitum as drinking water for 9 days as described in Example 1 and were concurrently treated orally during that period with one of the treatments listed in Table 8.
FIG. 1 and Table 8 summarize the effect of the calcimimetic compound B on colonic inflammation in 5% DSS induced colitis. Animals were euthanized with carbon dioxide on day nine post treatment. […]

The test system of test [2] is rat unstripped colonic sheets (enteric nervous system activity).
Test [3] can be described thus: Serum calcium and phosphorus in mdr1a-/- colitis study. As to conditions: 10 mg/kg PO daily; day 38. The format is in vivo, mouse. How it is done: (§1) All mice were necropsied on day 38 post initial inoculation. Mice were euthanized by CO2 asphyxiation. Blood was obtained by intracardiac puncture and collected in serum separator tubes. Serum was harvested and stored at −80° C. Colons were dissected below the cecum and just above the anus, and the contents of the lumen were removed. Sections of the proximal, middle, and distal colon regions were fixed in 10% neutral buffered formalin for histopathological analysis.
(§2) Serum clinical chemistry analysis was performed on the Olympus AU400 using standard tests and protocols. Calcium and phosphorus measurements were performed on undiluted serum for all samples. Serum cytokines and chemokines were assayed by Lincoplex mouse cytokine/chemokine muliplex immunoassasy (Millipore; Billerica, Mass.) per manufacturer instructions.
(§3) Results for serum analytes were expressed as the mean±standard error of the mean (SEM). A one-way ANOVA with Tukey's post test was performed using GraphPad Prism. A p-value of 0.05 was used in the calculation to determine whether there were significant differences between any two groups. Results for disease onset were expressed as a standard survival curve. A Log-Rank (Mantel-Cox) Test was performed using GraphPad Prism to determine significance. A p-value of 0.05 was used in the calculation to determine whether there were significant differences between any two groups. Results for clinical score and histology score were expressed as the mean±SEM. A Cochran-Mantel-Haenszel mean score test was performed using SAS software. A p-value of 0.05 was used in the calculation to determine whether there were significant differences between any two groups.

A further test has as its system IP-10. As to the kind of experiment: Serum IP-10 in mdr1a-/- colitis study. The format is in vivo, mouse. As to conditions: treatment groups vs vehicle treated animals. How it is done:
as §1, §2, §3

Test [4] deals with colitis in mdr1a-/- mice induced by H. bilis. As to the kind of experiment: Colitis in mdr1a-/- mice infected with Helicobacter bilis (clinical score, disease onset, histology). It counts as in vivo, mouse.
Setting [5] is: Compound A 10 μM, bumetanide 100 μM, proximal and distal colon.
Where [6] appears, read: 10 mg/kg PO daily, day 38, score 0-4.

`C=CC[C@@H]1/C=C(\C)C[C@H](C)C[C@H](OC)[C@H]2O[C@@](O)(C(=O)C(=O)N3CCCC[C@H]3C(=O)O[C@H](/C(C)=C/[C@@H]3CC[C@@H](O)[C@H](OC)C3)[C@H](C)[C@@H](O)CC1=O)[C@H](C)C[C@@H]2OC` (relative stereo) [FK 506, [3S-[3R*[E(1S*,3S*,4S*)],4S*,5R*,8S*,9E,12R*,14R*,15S*,16R*,18S*,19S*,26aR*]]-5,6,8,11,12,13,14,15,16,17,18,19,24,25,26,26a-hexadecahydro-5,19-dihydroxy-3-[2-(4-hydroxy-3-methoxycyclohexyl)-1-methylethenyl]-14,16-dimethoxy-4,10,12,18-tetramethyl-8-(2-propenyl)-15,19-epoxy-3H-pyrodi[2,1-c][1,4]oxaazacyclotricosine-1,7,20,21(4H, 23H)-tetrone monohydrate, reference compound]: in test [1], the “Animals with colonic inflammation/total animals” value was 10/10.
`COc1cccc([C@@H](C)NCCCc2ccccc2Cl)c1` [Compound A, 3-(2-chlorophenyl)-N-((1R)-1-(3-(methyloxy)phenyl)ethyl)-1-propanamine]: the “short-circuit current, subsequent addition after 2 μM TTX” value in test [2] (setting [5]) is given as “no additional effect”. The “secretory short-circuit current, agent added first” value in test [2] (over 15 minutes, proximal and distal colon, TTX 2 μM, Compound A 10 μM) is reported as “inhibited the secretory short-circuit current”.
For the molecule `COc1ccc(CN[C@@H](C)c2ccccc2)cc1-c1ccc(C(F)(F)F)cc1` [S-Compound B], in test [3], the “serum calcium levels compared to any other group” value is reported as “not statistically different” and the “serum phosphorus compared to CTLA4 treated animals” value is listed as “significant reduction”. Moreover, the “elevation of serum IP-10” value with IP-10 is reported as “less elevation”. Besides, the “day on which animals began showing clinical symptoms (disease onset)” value in test [4] (10 mg/kg PO daily) came to 27 days. Further, the “number of animals with clinical signs of disease at onset day” value in test [4] (10 mg/kg PO daily, day 27, n=5) is given as “two”. Besides, in test [4] (10 mg/kg PO daily, day 38), the “Average LI score” value is given as 1.8; the “GI Inflammation LI DISTAL, Segment Mean” value turned out to be 0.60; the “GI Inflammation LI MIDDLE, Segment Mean” value was 0.60; the “GI Inflammation LI PROXIMAL, Segment Mean” value was found to be 0.60. In test [4] (10 mg/kg PO daily, day 38), the “Total LI score (Max = 12), individual animals” value is 0 (4×) and 9. Further, in test [4] (setting [6]), the “GI Inflammation LI DISTAL, individual animals” value was 0 (4×) and 3; the “GI Inflammation LI MIDDLE, individual animals” value was 0 (4×) and 3; the “GI Inflammation LI PROXIMAL, individual animals” value was 0 (4×) and 3. Also, in test [4] (10 mg/kg PO daily, final day), the “clinical score of the animal with clinical symptoms (max 8)” value was 4. Besides, the “total large intestine (LI) scores of the colitic animals (max 12)” value in test [4] (R-Compound B 10 and 3 mg/kg groups, S-Compound B 10 mg/kg) was 9. In addition, the “number of animals with clinical symptoms of disease on the final day of the study” value in test [4] (day 38, per treatment group (S-Compound B 10 mg/kg, n=5; R-Compound B 10 mg/kg and 3 mg/kg, n=10 each)) was “one”. In addition, the “animals with colitis / colon pathology by histology” value in test [4] (per group: R-Compound B 10 and 3 mg/kg each, S-Compound B 10 mg/kg) is 1 out of 5.
Regarding `NC1=N[C@H](O)[C@H]2[C@H]3O[C@]4(O)O[C@@H]([C@@H](O)[C@@]2(N1)[C@@H]4O)[C@]3(O)CO` [TTX, Tetrodotoxin], in test [2], the “secretory short-circuit current, agent added first” value is on record as “inhibited the secretory short-circuit current” and the “short-circuit current, subsequent addition after 10 μM Compound A” value is “no additional effect”.
In the case of `CCCCNc1cc(C(=O)O)cc(S(N)(=O)=O)c1Oc1ccccc1` [bumetanide, Bumetanide], the “short-circuit current, subsequent addition after 2 μM TTX” value in test [2] (setting [5]) is given as “no additional effect”. Further, in test [2] (TTX 2 μM, bumetanide 100 μM, proximal and distal colon), the “short-circuit current, subsequent addition after 10 μM Compound A” value is “no additional effect”.
